Experimental data taken from patent publication US20230339949A1, “HETEROCYCLIC SUBSTITUTED FUSED y-CARBOLINE DERIVATIVE, PREPARATION METHOD THEREFOR, INTERMEDIATE THEREOF AND USE THEREOF” (SHUJING BIOPHARMA CO., LTD, priority 2020, published 2023).
Like-named read-outs stand apart in the source and are kept apart here.

Assays:
[1] = molecular target: T1, 5-HT2A receptor (Homo sapiens, UniProt P28223); experiment: Functional detection experiment of 5-HT2A receptor (cultured cells), calcium influx assay; assay type: cell-based
T1 construct: expressed in transfected cells
Description: The antagonistic effect of the compound of the present disclosure on the 5-HT2A receptor was detected by a calcium influx assay at the cellular level.
• (1) Test compounds: compounds of the embodiments of the present disclosure, self-made. • (2) Control compound: serotonin hydrochloride 5-hydroxytryptamine (Sigma, H9523), Ketanserin (Targetmol, T1066). • (3) Stable cell line:
• (1) Preparation of test compounds: the compounds of the embodiments of the present disclosure were respectively dissolved in DMSO to prepare 10 mM mother liquor, and the mother liquor was stored in the nitrogen cabinet for later use. • (2) Preparation of control compound: the control compound was dissolved in DMSO to prepare 10 mM mother liquor, and the mother liquor was repackaged and stored in the refrigerator at -80° C. for later use. • (3) Preparation of 250 mM probenecid solution: 1 mL experimental buffer was added into a tube containing 77 mg powder, and the powder was dissolved by vortex oscillation. • (4) Preparation of 2× fluorescent probe solution: a bottle of fluorescent probe dry powder was taken out to balance to room temperature, and 10 mL of experimental buffer solution and 200 μL of 250 mM probenecid solution were added thereto, and the mixture was scrolled and let stand for 5 minutes to ensure complete dissolution. • (5) Experimental buffer HBSS: HBSS and HEPES were mixed evenly in a ratio of 50:1, stored in a refrigerator at 4° C., and heated at 37° C. when used.
• (1) Cells were taken out from the liquid nitrogen tank and melted in a water bath at 37° C. The surface of the cryopreservation tube was wiped with 75% alcohol and put in the biosafety cabinet. • (2) The cell suspension was transferred to a 15 mL centrifuge tube with 4 mL preheated plating medium, and the tube was centrifuged at 1000 rpm for 5 minutes. • (3) The supernatant was discarded, and 10 mL of plating medium was added and blown gently, and the mixture was transferred to a culture dish for growth. After the cells had adhered to the wall for 24 hours, they were replaced with growth medium for continuous culture.
• (1) The logarithmic growth cells was taken and the cells grew to about 85%-90%. The cells were performed the following operations: cell cleaning, digestion, termination, then transferred to a 15 mL centrifuge tube, and the tube was centrifuged at room temperature at 1000 rpm for 5 minutes. • (2) The supernatant was discarded, and a certain plating medium was added and blown gently. 20 μL of cell suspension was taken out and counted. • (3) Cells were diluted to 1×10^6 cells/mL and 20 μL of cell suspension was added to each well of the cell plate (Greiner-781946), so that the density of each well is 2×10^4 cells/well. • (4) The cell plate was incubated in an incubator with 5% CO2 at 37° C. for 16-24 hours. […]

[2] = PK test on ICR mice; assay type: in vivo; settings: mouse; male ICR mice, oral gavage, 5 mg/kg single dose, plasma
Method: Male ICR mice were administered by oral gavage administration, and blood concentration of the compound of the present disclosure in mice was measured, and PK parameters were calculated, and the pharmacokinetics of the compound of the present disclosure was evaluated.
Preparation of drug: The test compound was taken, and physiological saline was added, and ultrasonication was performed.
Administration route and dosage: administered by oral gavage, administration dosage: 5 mg/kg, administration volume: 10 mL/kg.
Administration frequency and duration: single dose.
ICR mice were stratified by body weight and then randomly grouped into 3 mice per group, and fasted overnight before the experiment. After oral gavage administration, at 0, 0.033, 0.083, 0.5, 1, 2, 4, 6 and 8 hours, […] of blood was collected from the mandibular vein or saphenous vein of mice and put into sample tubes containing the anticoagulant sodium heparin, and the sample tube was placed in wet ice, centrifuged at 4 000 r·min^−1 for 10 minutes, and the plasma was separated and cryopreserved in a refrigerator at −80° C. for testing.
The blood concentration-time data of the compound of the present disclosure measured by gavage administration were substituted into Winnonlin 8.2 program to calculate the main pharmacokinetic parameters. Tmax and Cmax were measured values, AUC0-t and AUC0-∞ values were calculated by trapezoidal method, and t1/2 was calculated by the concentration point at the end of elimination phase via semi-logarithmic drawing method.

[3] = molecular target: T2, 5-HT2A (CHO-K1/5HT2A cells) (Homo sapiens, UniProt P28223); experiment: Functional activity test on receptor (cryopreservation cells), calcium FLIPR, 5-HT2A; assay type: cell-based
T2 construct: expressed in transfected cells; host or cells: CHO-K1 (CHO-K1/5HT2A, cryopreserved cells)
Method: • (1) Cells was taken out from a liquid nitrogen tank, and the tube cap was loosened and inverted to make the liquid nitrogen flow out of the tube, then the cryopreservation tube was tightened. • (2) The cryopreservation tube was shaken rapidly at 37° C. […] 20 μL cell suspension was taken out and counted by cell counter. • (6) Dilution according to the specified conditions: 1×10^6 cells /mL, 20 μL cell suspension was added into each well of the cell plate, and finally the concentration of each well is 20,000 cells/well sequentially. • (7) The cell plate was cultured in an incubator with 5% CO2 and at 37° C. for 16-24 hours. […]
• a) The cell plate and agonist compound plate were put into the instrument, and the program of reading the plate was run. • b) 10 μL was transferred from the agonist compound plate to the cell plate, and fluorescence signal was read. • c) The EC80 of agonist was calculated using Screenworks software and 6×EC80 concentration was prepared for later use. […]

[4] = molecular target: T3, D2 (CHO-K1/D2L/Gα15 cells) (Homo sapiens, UniProt P14416); experiment: Functional activity test on receptor (cryopreservation cells), calcium FLIPR, D2; assay type: cell-based; settings: for IC50: cryopreserved CHO-K1/D2L/Gα15 cells, calcium fluorescence (FLIPR), antagonist mode vs dopamine EC80; for D2/5-HT2A ratio: ratio of D2 IC50 to 5-HT2A IC50, Test Example 1
T3 construct: expressed in transfected cells; host or cells: CHO-K1 (CHO-K1/D2L/Gα15, cryopreserved cells)
Method: Test Example 1: Functional Activity Test of Each Compound on Receptor (Cryopreservation Cells) [table] • (1) Cells was taken out from a liquid nitrogen tank, and the tube cap was loosened and inverted to make the liquid nitrogen flow out of the tube, then the cryopreservation tube was tightened. • (2) The cryopreservation tube was shaken rapidly at 37° C. […] • (1) Preparation of 250 mM probenecid solution: 1 mL experimental buffer was added into a tube containing 77 mg powder, and the powder was dissolved by vortex oscillation. • (2) Preparation of 2× fluorescent probe solution: A bottle of fluorescent probe dry powder was taken out to balance to room temperature, and 10 mL of experimental buffer solution and 200 μL of 250 mM probenecid solution were added thereto, and the bottle was scrolled and let stand for 5 minutes to ensure complete dissolution, and then the bottle was scrolled again. • a) Preparation of agonist compound plate (test of EC80): […] The compound to be tested was diluted 3-fold at 10 concentration points using experimental buffer in the compound plate (Greiner-781280), with an initial concentration of 3 μM and 30 μL per well; the antagonistic positive compounds (Spiperone and Ketanserin) were diluted 3-fold at 10 concentration points using experimental buffer, with an initial concentration of 1 μM and 30 μL per well. DMSO concentration was not higher than 3%. • (2) Cell preparation: Cells was taken out from the incubator, and 20 μL of prepared 2× fluorescent probe solution was added thereto, incubated at 37° C. for 50 minutes, then equilibrated at room temperature for 10 minutes. • a) The cell plate and agonist compound plate were put into the instrument, and the program of reading the plate was run. • b) 10 μL was transferred from the agonist compound plate to the cell plate, and fluorescence signal was read. • c) The EC80 of agonist was calculated using Screenworks software and 6×EC80 concentration was prepared for later use.

[5] = cultured CHO-K1/5-HT2A cells, calcium influx (FLIPR), antagonist mode vs agonist EC80, read-out: 5-HT2A IC50

T3 sequence (P14416 whole entry): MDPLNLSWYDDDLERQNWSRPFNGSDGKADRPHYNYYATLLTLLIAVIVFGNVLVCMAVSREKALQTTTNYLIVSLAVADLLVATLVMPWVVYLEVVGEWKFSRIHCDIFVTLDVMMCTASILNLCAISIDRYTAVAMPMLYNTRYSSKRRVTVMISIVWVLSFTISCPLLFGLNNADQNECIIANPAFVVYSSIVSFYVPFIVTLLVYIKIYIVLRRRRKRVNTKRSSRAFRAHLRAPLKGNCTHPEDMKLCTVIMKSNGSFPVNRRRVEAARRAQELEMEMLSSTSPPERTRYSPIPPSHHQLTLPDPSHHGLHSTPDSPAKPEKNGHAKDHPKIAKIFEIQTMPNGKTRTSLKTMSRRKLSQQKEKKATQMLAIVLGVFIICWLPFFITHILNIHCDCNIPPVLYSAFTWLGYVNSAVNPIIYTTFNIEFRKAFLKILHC
T1 sequence (P28223 whole entry): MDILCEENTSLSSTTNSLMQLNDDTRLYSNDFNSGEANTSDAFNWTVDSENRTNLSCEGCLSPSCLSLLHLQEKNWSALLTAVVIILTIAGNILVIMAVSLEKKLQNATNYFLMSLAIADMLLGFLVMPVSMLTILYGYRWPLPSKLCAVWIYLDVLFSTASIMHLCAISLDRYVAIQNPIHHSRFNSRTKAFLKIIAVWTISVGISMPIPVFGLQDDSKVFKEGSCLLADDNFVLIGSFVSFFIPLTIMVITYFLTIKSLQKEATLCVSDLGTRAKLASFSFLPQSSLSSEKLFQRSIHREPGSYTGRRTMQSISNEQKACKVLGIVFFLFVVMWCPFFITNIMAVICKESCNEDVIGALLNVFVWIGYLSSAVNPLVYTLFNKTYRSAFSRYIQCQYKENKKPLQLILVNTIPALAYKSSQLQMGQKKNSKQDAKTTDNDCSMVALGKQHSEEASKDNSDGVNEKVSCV
T2 sequence (P28223 whole entry): as above

IC50 [1, 5] [µM] | AUC(0-inf) [2] [µg·h/mL] | AUC(0-t) [2] [µg·h/mL] | Cmax [2] [µg/mL] | Tmax [2] [h] | half-life [2] [h] | IC50 ([3]; cryopreserved CHO-K1/5HT2A cells, calcium fluorescence (FLIPR), antagonist mode vs serotonin EC80, read-out: 5-HT2A IC50) [µM] | SMILES | IC50 [4] [µM] | D2/5-HT2A ratio [4] | IC50 [3] [µM] | IC50 [1] [µM]
0.00078 | 0.19 | 0.155 | 0.109 | 0.17 | 3.14 | – | CN1C(=O)CN2c3c1cccc3[C@]1(C)CN(CCCC(=O)c3ccc(F)cc3)CC[C@H]21 [Embodiment 1-A, (6bR,10aS)-8-(4-(4-fluorophenyl)-4-oxobutyl)-3,6b-dimethyl-6b,7,8,9,10,10a-hexahydro-1H-pyrido[3′,4′:4,5]pyrrolo [1,2,3-de]quinoxalin-2(3H)-one] | – | – | – | –
0.00335 | 0.0591 | 0.0393 | 0.0135 | 0.28 | 5 | 0.12 | CN1CCN2c3c(cccc31)[C@@H]1CN(CCCC(=O)c3ccc(F)cc3)CC[C@@H]12 [ITI-007, Lumateperone, reference compound] | 0.569 | 4.75 | – | –
– | – | – | – | – | – | – | CN1C(=O)CN2c3c1cccc3C1(C)CN(CCCC(=O)c3ccc(F)cc3)CCC21 (stereo not shown) [Embodiment 1, 8-(4-(4-fluorophenyl)-4-oxobutyl)-3,6b-dimethyl-6b,7,8,9,10,10a-hexahydro-1H-pyrido[3′,4′:4,5]pyrrolo[1,2,3-de]quinoxalin-2(3H)-one] | 0.662 | 13.09 | 0.0505 | 0.00372
